Measurements taken from PubChem BioAssay (NCI).
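Test compounds were applied to cells in 96-well plates for 48 hours at 5 doses. Abbreviation: GI50, concentration required for 50% inhibition of growth. TGI: concentration producing complete growth inhibition.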

Experiments:
Test in all cases: NCI tumour cell line growth inhibition, 48 h
[1] = tested on: 786-0 renal
[2] = tested on: A498 renal
[3] = tested on: A549 NSCLC
[4] = tested on: ACHN renal
[5] = tested on: BT-549 breast
[6] = tested on: CAKI-1 renal
[7] = tested on: CCRF-CEM leukemia
[8] = tested on: COLO 205 colon
[9] = tested on: DU-145 prostate
[10] = tested on: EKVX NSCLC
[11] = tested on: HCC-2998 colon
[12] = tested on: HCT-116 colon
[13] = tested on: HCT-15 colon
[14] = tested on: HL-60(TB) leukemia
[15] = tested on: HOP-62 NSCLC
[16] = tested on: HOP-92 NSCLC
[17] = tested on: HS 578T breast
[18] = tested on: HT29 colon
[19] = tested on: IGROV1 ovarian
[20] = tested on: K-562 leukemia
[21] = tested on: KM12 colon
[22] = tested on: LOX IMVI melanoma
[23] = tested on: M14 melanoma
[24] = tested on: MALME-3M melanoma
[25] = tested on: MCF7 breast
[26] = tested on: MDA-MB-231 breast
[27] = tested on: MDA-MB-435
[28] = tested on: MOLT-4 leukemia
[29] = tested on: NCI-H226 lung
[30] = tested on: NCI-H23 lung
[31] = tested on: NCI-H460 lung
[32] = tested on: NCI-H522 lung
[33] = tested on: NCI/ADR-RES ovarian
[34] = tested on: OVCAR-3 ovarian
[35] = tested on: OVCAR-4 ovarian
[36] = tested on: OVCAR-5 ovarian
[37] = tested on: OVCAR-8 ovarian
[38] = tested on: PC-3 prostate
[39] = tested on: RPMI-8226 leukemia
[40] = tested on: RXF 393 renal
[41] = tested on: SF-268 CNS
[42] = tested on: SF-295 CNS
[43] = tested on: SF-539 CNS
[44] = tested on: SK-MEL-2 melanoma
[45] = tested on: SK-MEL-28 melanoma
[46] = tested on: SK-MEL-5 melanoma
[47] = tested on: SK-OV-3 ovarian
[48] = tested on: SN12C renal
[49] = tested on: SNB-19 CNS
[50] = tested on: SNB-75 CNS
[51] = tested on: SR leukemia
[52] = tested on: SW-620 colon
[53] = tested on: T-47D breast
[54] = tested on: TK-10 renal
[55] = tested on: U251 CNS
[56] = tested on: UACC-257 melanoma
[57] = tested on: UACC-62 melanoma
[58] = tested on: UO-31 renal

CCOC(=O)c1ccc2c(c1)c1c(C)c3ccncc3c(C)c1n2C
GI50 [1]: 0.642 µM
TGI [1]: 2.03 µM
GI50 [2]: 0.664 µM
TGI [2]: 2.05 µM
GI50 [3]: 0.382 µM
TGI [3]: 1.88 µM
GI50 [4]: 0.265 µM
TGI [4]: 1.32 µM
GI50 [5]: 1.27 µM
TGI [5]: 3.7 µM
GI50 [6]: 0.287 µM
TGI [6]: 1.49 µM
GI50 [7]: 0.851 µM
TGI [7]: 8.64 µM
GI50 [8]: 0.35 µM
TGI [8]: 1.82 µM
GI50 [9]: 0.546 µM
TGI [9]: 2.33 µM
GI50 [10]: 0.384 µM
TGI [10]: 2.37 µM
GI50 [11]: 1.09 µM
TGI [11]: 2.95 µM
GI50 [12]: 0.287 µM
TGI [12]: 1.38 µM
GI50 [13]: 0.381 µM
TGI [13]: 1.65 µM
GI50 [14]: 1.16 µM
TGI [14]: 6.08 µM
GI50 [15]: 0.408 µM
TGI [15]: 2.16 µM
GI50 [16]: 0.303 µM
TGI [16]: 2.36 µM
GI50 [17]: 0.543 µM
TGI [17]: 3.24 µM
GI50 [18]: 0.362 µM
TGI [18]: 1.78 µM
GI50 [19]: 0.211 µM
TGI [19]: 1.46 µM
GI50 [20]: 0.413 µM
TGI [20]: 2.53 µM
GI50 [21]: 0.517 µM
TGI [21]: 2.58 µM
GI50 [22]: 0.349 µM
TGI [22]: 1.62 µM
GI50 [23]: 0.505 µM
TGI [23]: 2.08 µM
GI50 [24]: 0.375 µM
TGI [24]: 1.68 µM
GI50 [25]: 0.346 µM
TGI [25]: 1.75 µM
GI50 [26]: 0.622 µM
TGI [26]: 2.4 µM
GI50 [27]: 0.649 µM
TGI [27]: 1.96 µM
GI50 [28]: 0.393 µM
TGI [28]: 3.19 µM
GI50 [29]: 0.26 µM
TGI [29]: 1.45 µM
GI50 [30]: 0.376 µM
TGI [30]: 1.98 µM
GI50 [31]: 0.68 µM
TGI [31]: 3.46 µM
GI50 [32]: 0.564 µM
TGI [32]: 2.55 µM
GI50 [33]: 0.47 µM
TGI [33]: 2.9 µM
GI50 [34]: 0.692 µM
TGI [34]: 2.62 µM
GI50 [35]: 0.745 µM
TGI [35]: 2.55 µM
GI50 [36]: 0.796 µM
TGI [36]: 2.84 µM
GI50 [37]: 0.436 µM
TGI [37]: 3.25 µM
GI50 [38]: 0.486 µM
TGI [38]: 2.15 µM
GI50 [39]: 0.44 µM
TGI [39]: 2.44 µM
GI50 [40]: 0.349 µM
TGI [40]: 1.67 µM
GI50 [41]: 0.846 µM
TGI [41]: 3.48 µM
GI50 [42]: 0.516 µM
TGI [42]: 4.63 µM
GI50 [43]: 0.467 µM
TGI [43]: 1.92 µM
GI50 [44]: 0.897 µM
TGI [44]: 2.58 µM
GI50 [45]: 0.539 µM
TGI [45]: 1.9 µM
GI50 [46]: 0.384 µM
TGI [46]: 1.51 µM
GI50 [47]: 0.721 µM
TGI [47]: 2.99 µM
GI50 [48]: 0.457 µM
TGI [48]: 2.31 µM
GI50 [49]: 0.441 µM
TGI [49]: 2.32 µM
GI50 [50]: 0.38 µM
TGI [50]: 1.95 µM
GI50 [51]: 0.269 µM
TGI [51]: 3.95 µM
GI50 [52]: 0.322 µM
TGI [52]: 1.8 µM
GI50 [53]: 0.855 µM
TGI [53]: 3.5 µM
GI50 [54]: 1.15 µM
TGI [54]: 3.05 µM
GI50 [55]: 0.468 µM
TGI [55]: 1.98 µM
GI50 [56]: 0.472 µM
TGI [56]: 2.6 µM
GI50 [57]: 0.378 µM
TGI [57]: 1.73 µM
GI50 [58]: 0.165 µM
TGI [58]: 1.4 µM
